The nature of series [1]: Half life in human. Type of series: ADME.
The nature of series [2]: Plasma protein binding in human. Type of series: ADME, cell-free. The following applies: read-out: PPB (converted).
The nature of series [3]: Half life in human plasma. Type of series: ADME, cell-free.
Series [4] in a line: Half life in iv dosed human. The conditions noted are these: in vivo. Type of series: ADME, organism-based.
Series [5] is described as follows: Subcutaneous bioavailability in human. The following applies: in vivo, sc.
A short description of series [6]: Half life in human at 0.5 mg/kg, iv. It counts as ADME, organism-based. The conditions noted are these: in vivo.
Series [7] is described as follows: Terminal half life in human. The following applies: read-out: beta t1/2 (converted). It counts as ADME.
Series [8] in a line: Plasma protein binding in human at 0.2 ug/ml. Type of series: ADME, cell-free. The following applies: at 0.2 µg/mL, read-out: PPB.
Series [9] in a line: Terminal elimination half life in human. Type of series: ADME.
Series [10] in a line: Half life in human at 0.3 mg/kg, iv. It counts as ADME, organism-based. The conditions noted are these: in vivo.
Series [11] in a line: Oral bioavailability in human. Type of series: ADME, organism-based. The following applies: in vivo.

15 molecules from ChEMBL document CHEMBL5550134, “An insight into the pharmacology of cysteine/methionine containing peptide drugs” (Eur J Med Chem, 2024) can be followed below.

Numbered stars: 1 amine (or outer) side, 2 acyl side, 3 side chain; on linkers, the order of the positions; unused ones are H or OH. Bridge positions count the residues as written; N and C are the ends. Square brackets hold non-standard residues; d marks the D form. Peptide text beside a SMILES is read from it. * marks the point of attachment. 2Nal = N[C@@H](Cc1ccc2ccccc2c1)C(=O)O; Benzoyl(4-F) = O=C(c1ccc(F)cc1)*; Cit = NC(=O)NCCC[C@H](N)C(=O)O; X1 = O=C(CCC[*:2])[*:1]

Regarding `CC[C@H](C)[C@H](NC(=O)[C@H](CO)NC(=O)[C@H](CC(N)=O)NC(=O)[C@H](CC(C)C)NC(=O)[C@H](Cc1ccc(O)cc1)NC(=O)[C@H](CCCCN)NC(=O)[C@H](CCCCN)NC(=O)[C@@H](NC(=O)[C@H](C)NC(=O)[C@H](CCSC)NC(=O)[C@H](CCC(N)=O)NC(=O)[C@H](CCCCN)NC(=O)[C@H](CCCN=C(N)N)NC(=O)[C@H](CC(C)C)NC(=O)[C@H](CCCN=C(N)N)NC(=O)[C@@H](NC(=O)[C@H](Cc1ccc(O)cc1)NC(=O)[C@H](CC(N)=O)NC(=O)[C@H](CC(=O)O)NC(=O)[C@@H](NC(=O)[C@H](Cc1ccccc1)NC(=O)[C@@H](NC(=O)[C@H](C)NC(=O)[C@H](CC(=O)O)NC(=O)[C@H](CO)NC(=O)[C@@H](N)Cc1c[nH]cn1)C(C)C)[C@@H](C)O)[C@@H](C)O)C(C)C)C(=O)N[C@@H](CC(C)C)C(=O)N[C@@H](CC(N)=O)C(N)=O`, the half-life in series [1] was 0.0167 h. With `N=C(N)NCCC[C@H](NC(=O)[C@@H]1CSSC[C@H](NC(=O)[C@H](Cc2ccc3ccccc3c2)NC(=O)[C@H](CCCNC(=N)N)NC(=O)[C@H](CCCNC(=N)N)NC(=O)c2ccc(F)cc2)C(=O)N[C@@H](Cc2ccc(O)cc2)C(=O)N[C@@H](CCCNC(N)=O)C(=O)N[C@@H](CCCCN)C(=O)N[C@@H](CCCCN)C(=O)N2CCC[C@H]2C(=O)N[C@@H](Cc2ccc(O)cc2)C(=O)N[C@@H](CCCNC(=N)N)C(=O)N[C@@H](CCCNC(N)=O)C(=O)N1)C(N)=O` ({Benzoyl(4-F)}-RR[2Nal]CY[Cit]KKPYR[Cit]CR-NH2; disulfide 4-13), the fraction unbound in series [2] is less than 0.01. Besides, the half-life in series [1] is 2 h. With `CC[C@H](C)[C@@H]1NC(=O)[C@H](Cc2ccc(OC)cc2)NC(=O)CCCSC[C@@H](C(=O)N2CCC[C@H]2C(=O)N[C@@H](CC(C)C)C(=O)NCC(N)=O)NC(=O)[C@H](CC(N)=O)NC(=O)[C@H](CCC(N)=O)NC1=O` [CARBETOCIN] (Y(Me)IQNCPLG-NH2; linker N-5 via X1), the half-life in series [3] was found to be 0.667 h.

For the molecule `CC(=O)N[C@H](CSSC[C@H](N)C(=O)O)C(=O)N[C@H](C)C(=O)N[C@H](CCCNC(=N)N)C(=O)N[C@H](CCCNC(=N)N)C(=O)N[C@H](CCCNC(=N)N)C(=O)N[C@H](C)C(=O)N[C@H](CCCNC(=N)N)C(N)=O` [ETELCALCETIDE], the half-life in series [4] was 72 h. With `NC(N)=NCCC[C@@H](N)C(=O)N[C@@H](CCCN=C(N)N)C(=O)N1CCC[C@H]1C(=O)N1C[C@H](O)C[C@H]1C(=O)NCC(=O)N[C@@H](Cc1cccs1)C(=O)N[C@@H](CO)C(=O)N1Cc2ccccc2C[C@@H]1C(=O)N1[C@H](C(=O)N[C@@H](CCCN=C(N)N)C(=O)O)C[C@@H]2CCCC[C@@H]21` [ICATIBANT], in series [5], the subcutaneous bioavailability is 97%. Moreover, in series [1], the half-life is 1.4 h. `C/C=C1\NC(=O)[C@H]2CSSCC/C=C/[C@H](CC(=O)N[C@H](C(C)C)C(=O)N2)OC(=O)[C@H](C(C)C)NC1=O` [ROMIDEPSIN]: in series [6], the half-life was 3 h. Turning to `CC(=O)N[C@@H](CCCNC(=N)N)C(=O)N[C@H]1CSSC[C@@H](C(N)=O)NC(=O)[C@H](Cc2c[nH]c3ccccc23)NC(=O)[C@H](CCCNC(=N)N)NC(=O)[C@@H](Cc2ccccc2)NC(=O)[C@H](Cc2c[nH]cn2)NC(=O)[C@@H](C)NC1=O` [SETMELANOTIDE], in series [2], the fraction unbound is 0.209. In [1], this molecule showed a half-life of 11 h. Turning to `CC[C@H](C)[C@H](NC(=O)[C@H](Cc1ccccc1)NC(=O)[C@H](CC(=O)O)NC(=O)[C@H](CCCNC(=N)N)NC(=O)[C@H](C)NC(=O)[C@H](C)NC(=O)[C@H](CC(C)C)NC(=O)[C@H](CC(N)=O)NC(=O)[C@H](CC(=O)O)NC(=O)[C@H](CC(C)C)NC(=O)[C@@H](NC(=O)[C@@H](NC(=O)[C@H](CC(N)=O)NC(=O)[C@H](CCSC)NC(=O)[C@H](CCC(=O)O)NC(=O)[C@H](CC(=O)O)NC(=O)[C@H](CO)NC(=O)[C@H](Cc1ccccc1)NC(=O)[C@H](CO)NC(=O)CNC(=O)[C@H](CC(=O)O)NC(=O)CNC(=O)[C@@H](N)Cc1c[nH]cn1)[C@@H](C)O)[C@@H](C)CC)C(=O)N[C@@H](CC(N)=O)C(=O)N[C@@H](Cc1c[nH]c2ccccc12)C(=O)N[C@@H](CC(C)C)C(=O)N[C@H](C(=O)N[C@@H](CCC(N)=O)C(=O)N[C@H](C(=O)N[C@@H](CCCCN)C(=O)N[C@H](C(=O)N[C@H](C(=O)N[C@@H](CC(=O)O)C(=O)O)[C@@H](C)O)[C@@H](C)CC)[C@@H](C)O)[C@@H](C)CC` [TEDUGLUTIDE], the half-life in series [7] is 1.3 h. Besides, the subcutaneous bioavailability in series [5] was found to be 88%.

In turn, `CC[C@H](C)[C@H](NC(=O)[C@H](CCC(=O)O)NC(=O)[C@H](CO)NC(=O)[C@@H](NC(=O)[C@@H](N)CO)C(C)C)C(=O)N[C@@H](CCC(N)=O)C(=O)N[C@@H](CC(C)C)C(=O)N[C@@H](CCSC)C(=O)N[C@@H](Cc1cnc[nH]1)C(=O)N[C@@H](CC(N)=O)C(=O)N[C@@H](CC(C)C)C(=O)NCC(=O)N[C@@H](CCCCN)C(=O)N[C@@H](Cc1cnc[nH]1)C(=O)N[C@@H](CC(C)C)C(=O)N[C@@H](CC(N)=O)C(=O)N[C@@H](CO)C(=O)N[C@@H](CCSC)C(=O)N[C@@H](CCC(=O)O)C(=O)N[C@@H](CCCN=C(N)N)C(=O)N[C@H](C(=O)N[C@@H](CCC(=O)O)C(=O)N[C@@H](Cc1c[nH]c2ccccc12)C(=O)N[C@@H](CC(C)C)C(=O)N[C@@H](CCCN=C(N)N)C(=O)N[C@@H](CCCCN)C(=O)N[C@@H](CCCCN)C(=O)N[C@@H](CC(C)C)C(=O)N[C@@H](CCC(N)=O)C(=O)N[C@@H](CC(=O)O)C(=O)N[C@H](C(=O)N[C@@H](Cc1cnc[nH]1)C(=O)N[C@@H](CC(N)=O)C(=O)N[C@@H](Cc1ccccc1)C(=O)O)C(C)C)C(C)C` [TERIPARATIDE] returned a subcutaneous bioavailability in [5] of 95%. In series [1], this molecule gave a half-life of 1 h. For `NCCCC[C@H](NC(=O)[C@@H]1CCCN1C(=O)[C@@H]1CSSC[C@H](NC(=O)CNC(=O)CNC(=O)CN)C(=O)N[C@@H](Cc2ccc(O)cc2)C(=O)N[C@@H](Cc2ccccc2)C(=O)N[C@@H](CCC(N)=O)C(=O)N[C@@H](CC(N)=O)C(=O)N1)C(=O)NCC(N)=O` [TERLIPRESSIN], in series [7], the half-life is 0.9 h. For the molecule `CSCC[C@@H]1NC(=O)[C@H](CC(C)C)NC(=O)[C@H](CCCNC(=N)N)NC(=O)[C@H](CO)NC(=O)[C@@H]2CSSC[C@@H]3NC(=O)[C@H](CO)NC(=O)CNC(=O)[C@H]([C@@H](C)O)NC(=O)[C@H](CSSC[C@H](N)C(=O)N[C@@H](CCCCN)C(=O)NCC(=O)N[C@@H](CCCCN)C(=O)NCC(=O)N[C@@H](C)C(=O)N[C@@H](CCCCN)C(=O)N2)NC(=O)[C@H](CSSC[C@@H](C(N)=O)NC(=O)[C@H](CCCCN)NC(=O)CNC(=O)[C@H](CO)NC(=O)[C@H](CCCNC(=N)N)NC3=O)NC(=O)[C@H](CC(=O)O)NC(=O)[C@H](Cc2ccc(O)cc2)NC1=O` [ZICONOTIDE], the fraction unbound at 0.2 ug/ml in series [8] came to 0.5.

On to LIXISENATIDE, for which the “beta t1/2” value in series [9] is 3 h. Turning to NESIRITIDE, in series [10], the t1/2 was determined as 0.3 h. The molecule TESAMORELIN registered a F in series [11] of less than 4%. The same molecule returned a t1/2 in series [1] of 0.433 h. In the case of VOSORITIDE, the t1/2 in [1] amounted to 0.35 h.
